Laboratory results as given in patent USRE37410E, “Controlled local delivery of chemotherapeutic agents for treating solid tumors” (priority 1999, dated 2001).
Where “and” joins values, the source holds several entries; their conditions need not be identical. Identical values can stand only once. Like-named read-outs stand apart in the source and are kept apart here.

How the values were obtained:
[1] = test system: 9L; assay: Intracranial local drug delivery by polymer implant in rat glioma model, median survival (Table 1 summary); details: in vivo
[2] = test system: glioma lines; details: in vitro; cited from earlier work
[3] = in vivo; cited from earlier work
[4] = test system: topoisomerase I; details: cited from earlier work
[5] = test system: L1210; details: in vitro; cited from earlier work
[6] = test system: rat Walker 256 carcinosarcoma; details: in vitro; cited from earlier work
[7] = test system: U87; assay: Clonogenic assay, camptothecin; format: cell-based, human
Protocol: (§1) Tumor cell lines. […] The F98 glioma cells were provided by Dr. Joseph Goodman, Department of Neurosurgery, Ohio State University, Columbus, Ohio. The human glioma cell lines U87 and U373 were provided by Dr. O. Michael Colvin, Johns Hopkins University School of Medicine, Baltimore, Md. JH1 is a cell line established from a biopsy specimen from a patient with a pathologically confirmed glioblastoma multiform.
(§2) Clonogenic assay. The sensitivity of each glioma cell line was tested in a clonogenic assay. At confluence, the cells were trypsinized and plated at 400 cells per 60 mm well. After 24 hours, fresh medium containing camptothecin at various concentrations was added. For brief exposure experiments, the camptothecin was removed and replaced with fresh medium after 1 hour; for continuous exposure, medium was left in place for 7 days. At 7 days, all plates were fixed and stained with coomassie brilliant blue (Bio Rad, Richmond, Calif.). Colonies containing more than 50 cells were identified and counted. Treatments were performed in triplicate. Survival was calculated as the number of colonies formed by the treated cells relative to the number of colonies formed by the untreated cells.

[8] = test system: JH1; assay: Clonogenic assay, camptothecin; format: cell-based; details: Homo sapiens; for IC100: read-out: concentration for total cell kill
Text: as §1
Cell culture of freshly biopsied gliomas. Biopsy samples were obtained from the operating room and transported in sterile specimen containers. Specimens were filtered through a 230 μm mesh collector screen (Bellco Glass, Inc., Vineland, N.J.) with use of a glass pestle. The specimen was then centrifuged at 1000 rpm for 10 minutes. The supernatant fraction was discarded and the cell pellet was resuspended in a 1 ml of minimum essential medium (Gibco BRL, Grand Island, N.Y.) with 10% fetal bovine serum, 0.5% L-glutamine, penicillin (base; 80.5 units/ml), and streptomycin (80.5 μg/ml). The suspension was passed through a 25 gauge needle, after which it was recentrifuged at 1000 rpm for 5 minutes. The supernatant fraction was discarded and the pellet was resuspended in 5 ml of medium. This suspension was plated onto T75 culture flasks at various dilutions and incubated at 37° C. The medium was changed approximately every 3 days. When the initial culture reached confluence, the cells were trypsinized and passaged. Sensitivity was assessed by the clonogenic assay below, beginning with the second passage.
as §2

[9] = test system: F98, 9L, U87, U373, JH1 cell lines; assay: In vitro efficacy of camptothecin on several cell lines (clonogenic assay); format: cell-based; details: 168 h; rat and established human cell lines, continuous exposure; read-out: LD90 after continuous exposure
Text: as §1
Cell culture of freshly biopsied gliomas. Biopsy samples were obtained from the operating room and transported in sterile specimen containers. Specimens were filtered through a 230 μm mesh collector screen (Bellco Glass, Inc., Vineland, N.J.) with use of a glass pestle. The specimen was then centrifuged at 1000 rpm for 10 minutes. The supernatant fraction was discarded and the cell pellet was resuspended in a 1 ml of minimum essential medium (Gibco BRL, Grand Island, N.Y.) with 10% fetal bovine serum, 0.5% L-glutamine, penicillin (base; 80.5 units/ml), and streptomycin (80.5 μg/ml). […] Sensitivity was assessed by the clonogenic assay below, beginning with the second passage.
Clonogenic assay. […] Colonies containing more than 50 cells were identified and counted. […] Survival was calculated as the number of colonies formed by the treated cells relative to the number of colonies formed by the untreated cells.

[10] = sodium salt formulation; cited from earlier work
[11] = test system: F98; assay: Clonogenic assay, camptothecin; format: cell-based; details: Rattus norvegicus
Protocol: as §1, §2

[12] = test system: U373; assay: Clonogenic assay, camptothecin; format: cell-based; details: Homo sapiens, U373 MG
Protocol: as §1, §2

[13] = test system: 9L; assay: Clonogenic assay, camptothecin; format: cell-based; details: Rattus norvegicus
Protocol: as §1, §2

[14] = test system: melanoma and advanced gastrointestinal carcinoma; details: human, in vivo; cited from earlier work
[15] = cited from earlier work
[16] = Intracranial local drug delivery by polymer implant in rat glioma model, P98 cells injected (Table 1 summary); format: in vivo; details: p(FAD:SA) 5% load
Text: Table 1 is a summary of studies on intracranial local drug delivery in rat glioma models, as described in the following examples.

[17] = 1 h, read-out: LD90 1 Hour Exposure
[18] = 168 h, continuous exposure, 7 days, read-out: LD90 Continuous Exposure

## CN(C)c1ccc(O)c2c1C[C@H]1C[C@H]3[C@H](N(C)C)C(O)=C(C(N)=O)C(=O)[C@@]3(O)C(O)=C1C2=O [minocycline]
[1]
  % increase survival > no Rx: 330%
[1]; ip
  % increase survival > ip BCNU: 93%

## COc1cccc2c1C(=O)c1c(O)c3c(c(O)c1C2=O)C[C@@](O)(C(=O)CO)C[C@@H]3O[C@H]1C[C@H](N)[C@H](O)[C@H](C)O1 [Adriamycin]
[2]
  sensitivity of gliomas: highly sensitive
[3]
  cardiac toxicity: significant dose related cardiac toxicity

## CC[C@@]1(O)C(=O)OCc2c1cc1n(c2=O)Cc2cc3ccccc3nc2-1 [camptothecin, 4-ethyl-4-hydroxy-1H-pyrano[3',4':6,7]indolizino[1,2-b] quinoline-3,14(4H,12H)-dione]
[4]
  inhibition of topoisomerase I: irreversibly inhibiting
[5]
  cytotoxic anti-tumor activity: strong cytotoxic anti-tumor activity
[6]
  cytotoxic anti-tumor activity: strong cytotoxic anti-tumor activity
[7]; 1 hour exposure, 60 min, read-out: LD90 1 Hour Exposure
  IC90: 1400 nM
[7]; Homo sapiens, U-87 MG, 1 h, 1 hour exposure, read-out: LD90 1 Hour Exposure
  IC90: 1200 nM
[7]; Homo sapiens, U-87 MG, 168 h, continuous exposure, 7 days, read-out: LD90 Continuous Exposure
  IC90: 100 nM
[8]; [17]
  IC90: 100 nM
[8]; [18]
  IC90: 26 nM
[8]; 1-hour exposure
  IC100: 0.14 µM
[8]; continuous exposure
  IC100: 0.03 µM
[9]
  IC90: ≤ 100 nM
[10]
  protein binding: strongly protein-bound
[11]; F98, 1 h, read-out: LD90 1 Hour Exposure
  IC90: 1400 nM
[11]; F98, 168 h, continuous exposure, 7 days, read-out: LD90 Continuous Exposure
  IC90: 100 nM
[12]; [17]
  IC90: 300 nM
[12]; [18]
  IC90: 26 nM
[13]; [17]
  IC90: 1400 nM
[13]; [18]
  IC90: 100 nM
[14]
  systemic toxicity: unexpectedly severe systemic toxicity
  tumoral responses: poor tumoral responses

## O=NN(CCCl)C(=O)NCCCl [BCNU, 1,3-bis(2-chloroethyl)-1-nitrosourea]
[1]
  % increase survival: 634% and 437%
  Median survival in days, Rx group: 80 and 62.3
[15]; 21 days after implantation
  radius from implant within which BCNU is detectable: ≤ 3 mm
[15]; Day 7
  radius from implant within which BCNU is detectable: ≤ 40 mm
[15]; PCPP-SA (20:80), initially, read-out: average concentration in brain
  concentration: 8000 µM
[15]; over time
  amount of brain exposed to BCNU: decrease after three days

## N.N.O=C([O-])C1(C(=O)[O-])CCC1.[Pt+2] [Carboplatin]
[16]; Rx day 5
  % increase survival: 225%
[16]; Rx day 5, 1 × 10^5 cells injected, controls 16, n = 18
  Median survival in days, Rx group: 52 days
